Assay [1] concerns the target T1, Prostaglandin G/H synthase 1 (Ovis aries, UniProt P05979).
T1 sequence (P05979 whole entry): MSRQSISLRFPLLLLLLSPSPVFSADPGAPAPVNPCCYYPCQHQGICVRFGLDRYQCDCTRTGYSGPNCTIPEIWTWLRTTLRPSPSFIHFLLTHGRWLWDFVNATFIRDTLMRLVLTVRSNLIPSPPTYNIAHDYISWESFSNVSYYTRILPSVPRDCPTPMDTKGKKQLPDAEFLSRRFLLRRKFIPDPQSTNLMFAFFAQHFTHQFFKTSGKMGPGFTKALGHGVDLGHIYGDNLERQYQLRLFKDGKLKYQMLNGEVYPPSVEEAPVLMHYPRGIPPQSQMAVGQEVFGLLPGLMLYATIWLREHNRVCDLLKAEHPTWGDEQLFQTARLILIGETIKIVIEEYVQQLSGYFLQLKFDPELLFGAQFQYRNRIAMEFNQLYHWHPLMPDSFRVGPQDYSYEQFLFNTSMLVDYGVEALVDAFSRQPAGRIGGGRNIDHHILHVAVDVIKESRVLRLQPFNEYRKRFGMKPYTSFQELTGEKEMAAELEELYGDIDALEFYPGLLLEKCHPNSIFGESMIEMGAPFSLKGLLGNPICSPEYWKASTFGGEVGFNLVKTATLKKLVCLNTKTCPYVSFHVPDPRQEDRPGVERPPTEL
Description: Inhibition of ovine COX1 by measuring PGE2.

Assay [2] concerns the target T2, Prostaglandin G/H synthase 2 (Homo sapiens, UniProt P35354).
T2 sequence (P35354 whole entry): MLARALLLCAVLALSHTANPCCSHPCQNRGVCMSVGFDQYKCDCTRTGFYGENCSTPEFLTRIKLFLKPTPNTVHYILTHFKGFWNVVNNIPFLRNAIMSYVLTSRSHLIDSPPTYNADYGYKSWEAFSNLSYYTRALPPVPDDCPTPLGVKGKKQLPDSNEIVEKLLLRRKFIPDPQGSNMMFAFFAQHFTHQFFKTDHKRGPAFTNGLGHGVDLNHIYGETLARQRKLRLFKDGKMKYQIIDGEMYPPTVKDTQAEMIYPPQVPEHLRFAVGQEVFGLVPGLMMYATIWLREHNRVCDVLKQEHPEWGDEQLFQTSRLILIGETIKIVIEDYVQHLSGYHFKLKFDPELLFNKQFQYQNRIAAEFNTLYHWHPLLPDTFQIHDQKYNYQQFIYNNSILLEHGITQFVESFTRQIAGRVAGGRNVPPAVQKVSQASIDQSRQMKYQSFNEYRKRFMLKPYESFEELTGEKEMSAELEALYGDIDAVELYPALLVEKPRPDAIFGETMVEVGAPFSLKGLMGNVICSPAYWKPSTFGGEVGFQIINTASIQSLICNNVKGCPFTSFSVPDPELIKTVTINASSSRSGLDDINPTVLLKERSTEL
Description: Inhibition of human recombinant COX2 by measuring PGE2.

Assay [3] in a line: Selectivity for ovine COX1 over human recombinant COX2.
The test system of assay [4] is Aorta. Briefly: Relaxing effect on guinea pig aorta ring assessed as reduction of force of contraction at 100 uM. Further details: scale not given: the % may be the effect or the level left. It counts as functional, Cavia porcellus.
Assay [5] concerns Ileum. Description: Relaxing effect on guinea pig terminal ileum ring assessed as reduction of force of contraction at 100 uM. The class given is functional, Cavia porcellus. On the set-up: scale not given: the % may be the effect or the level left.
Assay [6] can be described thus: Relaxing effect on guinea pig arteria pulmonalis ring assessed as reduction of force of contraction at 100 uM. The class given is functional, Cavia porcellus. Further details: scale not given: the % may be the effect or the level left.

Structures are written as SMILES.

Take `COc1ccc(C2=Cc3ccccc3CC2)c(OC)c1OC`: the values for the IC50 in assay [1] and in assay [2] were 480 nM and 660 nM, respectively. For the same compound, the Ratio IC50 in assay [3] was determined as 1.38.

As to `COc1ccc2c(c1)CCC(c1ccc(OC)c(OC)c1)=C2`, the IC50 (commonly the concentration that gives 50% inhibition) came out at 380 nM in assay [1] and 30 nM in assay [2]. Further, the Ratio IC50 in assay [3] was determined as 0.079.

Turning to `C1=C(c2ccc3c(c2)OCO3)Cc2ccccc21`, the Activity is -28.08% in assay [4], -51.74% in assay [5] and -19.82% in assay [6]. Further, the IC50 in assay [1] is 12800 nM; in assay [2], > 100000 nM. Besides, in assay [3], the Ratio IC50 was > 7.8.

In the case of `COc1ccccc1C1=Cc2ccccc2C1`, the Activity in assay [4] is given as -35.72%; in assay [5], -40.89%; in assay [6] it was -26.08%. Moreover, the results for the IC50 in assay [1] and in assay [2] were 460 nM and 62300 nM, respectively. For the same compound, the Ratio IC50 in assay [3] turned out to be 135.

As to `Oc1ccc(/C=C/c2cc(O)cc(O)c2)cc1` [RESVERATROL], the results for the Activity in assay [4], in assay [5] and in assay [6] were -55.15%, -64.77% and -53.56%, respectively. This compound yielded an IC50 in assay [1] of 535 nM.

As to `COc1ccc2c(c1)CCC(c1ccc(OC)c(OC)c1OC)=C2`, the IC50 in assay [1] is 15 nM; in assay [2], > 100000 nM. For the same compound, the Ratio IC50 in assay [3] was > 6670.

`C1=C(c2ccc3c(c2)OCO3)CCc2ccccc21`: the 50% inhibitory concentration (IC50) in assay [1] and in assay [2] was > 100000 nM throughout.

For `COc1ccc(C2=Cc3ccccc3C2)c(OC)c1OC`, the Activity in assay [4] is given as -3.45%; in assay [5] it was -35.94%; in assay [6], -11.92%. Also, the IC50 in assay [1] is 30 nM; in assay [2] it was 1330 nM. Also, the Ratio IC50 in assay [3] came out at 44.3.

Take `COc1ccc(C2=Cc3ccccc3CC2)cc1OC`: the Activity in assay [4] is reported as -15.97%; in assay [5], -45.34%; in assay [6] it was -41.45%. Further, the results for the IC50 in assay [1] and in assay [2] were 61100 nM and > 100000 nM, respectively. In addition, the Ratio IC50 in assay [3] was > 1.63.

For the origin of these results see ChEMBL document CHEMBL1143748, “'Bridged' stilbene derivatives as selective cyclooxygenase-1 inhibitors” (Bioorg Med Chem, 2007).
